Data published in PMC10702441 (2023).

Columns and labels:
Test in all cases: ITC
[1] = tested on: Aca domain I split construct (dom I; 28-mer + 22-mer) (RNA, riboswitch) GGGCGCAACAUCCCCGCCGGUUGGGCGC/GCGCAGUGAACCGGCUGCGUCC; conditions: 100 mM NaCl, 20 mM MgCl2, 0.10 M Na-HEPES pH 7.0, 10 °C, 1:1 model, apparent
[2] = tested on: Aai full-length NAD+-I (nadA) riboswitch, 100-mer (RNA, riboswitch) GGCUGCAACAUCCCCGUGGGUUGGACGGCGAAAGCCGUAGCGAAUCCACUGCAGCCUGUAUGGCUUUCAACAUCCCCGUCCGCGAAAGCGGACUGAAGGC
[3] = tested on: Aca domain II split construct (dom II; 28-mer + 20-mer) (RNA, riboswitch) GCUUUCAACAUCCCCGUCCCGGGCGGAG/CUCCGCAGUGGACUGAAGGC; conditions: 100 mM NaCl, 20 mM MgCl2; 0.10 M Na-HEPES pH 7.0, 10 °C; ligand in syringe 0.40–0.63 mM
[4] = 100 mM NaCl, 20 mM MgCl2, 0.10 M Na-HEPES pH 7.0, 10 °C, 1:1 model, apparent

SMILES	KD [1] [µM]	KD [2, 4] [µM]	binding [3]	KD ([1]; error printed ± 7.1) [µM]	KD ([2]; K+ (KCl replacing NaCl), KCl-containing ITC buffer, 10 °C, no significant change from Na+) [µM]
NC(=O)C1=CN([C@@H]2O[C@H](COP(=O)(O)OP(=O)(O)OC[C@H]3O[C@@H](n4cnc5c(N)ncnc54)[C@H](O)[C@@H]3O)[C@@H](O)[C@H]2O)C=CC1	55.5 ± 3.6	59.7 ± 2.2	no	–	–
Nc1ncnc2c1ncn2[C@@H]1O[C@H](COP(=O)(O)OP(=O)(O)O)[C@@H](O)[C@H]1O	11.1 ± 0.6	9.7 ± 1.1	–	–	–
Nc1ncnc2c1ncn2[C@@H]1O[C@H](COP(=O)(O)OP(=O)(O)OP(=O)(O)O)[C@@H](O)[C@H]1O	–	11.0 ± 3.5	–	–	–
NC(=O)c1ncn([C@@H]2O[C@H](COP(=O)(O)OP(=O)(O)OC[C@H]3O[C@@H](n4cnc5c(N)ncnc54)[C@H](O)[C@@H]3O)[C@@H](O)[C@H]2O)n1	–	30.2 ± 1.2	–	21.9 ± 8.4	–
NC(=O)c1ccc[n+]([C@@H]2O[C@H](COP(=O)(O)OP(=O)(O)OC[C@H]3O[C@@H](n4cnc5c(N)ncnc54)[C@H](O)[C@@H]3O)[C@@H](O)[C@H]2O)c1	24.6 ± 8.4	31.5 ± 1.5	no	–	18.2 ± 2.1
